Experimental data: US20250229068A1, “ELECTROCONDUCTIVE MICRONEEDLE FOR DRUG DELIVERY INTO DEEP TISSUE” (The University of Hong Kong, priority 2024, published 2025)

System: CGRP gene expression in PC-12 cells
Test: RT-qPCR of CGRP gene in PC-12 cells
Assay type: cell-based
Conditions: miconazole and electric current together (0.5 mA, 5 mins), 24 h
Protocol: PC-12 cells are cultures with 10% FBS and 1% Penicillin-Streptomycin supplemented with DMEM and incubated in a humidified incubator (37° C., 5% CO2). For the experiment, 5×10^4 cells per well are seeded on to 24 well plates and incubate for 24 hours to form a uniform monolayer. After that, miconazole nitrate ([…]) and electrical stimulation (0.5 mA, 5 mins) are given as treatment. Further, untreated cells are served as a control. After the treatment, medium is changed for electrical stimulation group and incubate for another 24 h. After that, total RNA is extracted from the treated cells using RNeasy Mini Kit (Qiagen, Hilden, Germany) and checked the purity using NanoDrop (Thermo Fisher Scientific, USA). Next, RNA is reversely transcribed into cDNA using the First Strand cDNA kit (Takara, DaLian, China). Real-time quantitative PCR reaction is performed with cDNA using TB green Premix. The mean cycle threshold (Ct) value of each target gene is normalized to the housekeeping genes (i.e., GAPDH).
It is hypothesized that the miconazole nitrate molecules released from the electroconductive MNs may also trigger the release of the calcitonin gene-related peptide (CGRP) from nociceptive neurons under electrical stimulation. […]

## Clc1ccc(COC(Cn2ccnc2)c2ccc(Cl)cc2Cl)c(Cl)c1 (stereo not shown) [miconazole, miconazole nitrate]
  increase in the expression of CGRP: ~3 fold
